ChEMBL document CHEMBL1133203, “Synthesis of L-(+)-3-(3-hydroxy-4-pivaloyloxybenzyl)-2,5-diketomorpholine as potential prodrug of L-dopa” (Bioorg Med Chem Lett, 2000)
Converted amounts (≈) assume the structure as drawn.

What was measured:
[1] = Rate constant in chemical and enzymatic hydrolysis to form L-DOPA, in 80% human plasma; type: ADME, cell-free
[2] = Rate constant in chemical and enzymatic hydrolysis to form another compound (8)*, in 80% human plasma (experiment 1); type: ADME, cell-free
[3] = Partition coefficient is determined in octanol/buffer solution at pH 7.4; type: physicochemical
[4] = Rate constant in chemical and enzymatic hydrolysis, in buffer at pH 1.3; type: ADME
[5] = Rate constant in chemical and enzymatic hydrolysis to form another compound (8)*, in 80% human plasma (experiment 2); type: ADME, cell-free
[6] = Half-life in chemical and enzymatic hydrolysis, in buffer at pH 1.3; type: ADME
[7] = Half-life in chemical and enzymatic hydrolysis, in buffer at pH 7.4; type: ADME
[8] = organism: Rattus norvegicus; assay: Rate constant in chemical and enzymatic hydrolysis, in 80% rat plasma; type: ADME
[9] = Half-life in chemical and enzymatic hydrolysis, in 80% rat plasma; type: ADME
[10] = Rate constant in chemical and enzymatic hydrolysis, in buffer at pH 7.4; type: ADME
[11] = Aqueous solubility was evaluated; type: physicochemical; settings: buffer

| Structure (SMILES) | K obs [1] [min⁻¹] | K obs [2] [min⁻¹] | logD [3] | K obs [4] [min⁻¹] | K obs [5] [min⁻¹] | half-life [6] [h] | half-life [7] [h] | K obs [8] [min⁻¹] | half-life [9] [min] | K obs [10] [min⁻¹] | solubility [11] [µg/mL] |
| --- | --- | --- | --- | --- | --- | --- | --- | --- | --- | --- | --- |
| O=C1COC(=O)[C@H](Cc2ccc(O)c(O)c2)N1 | 0.0047 | – | – | – | – | – | – | – | – | – | – |
| CC(C)(C)C(=O)Oc1ccc(C[C@@H]2NC(=O)COC2=O)cc1O | – | 0.019 | 2.15 | 0.00022 | 0.019 | 52.3 | 1.55 | 0.29 | 2.7 | 0.0075 | 50 (≈ 156 µM) |
